Earlier results in patent US20260365653A1, “IRREVERSIBLE MUTEGFR INHIBITORS” (Bayer Aktiengesellschaft, priority 2022, published 2026).

Tests used:
wild-type EGFR = conditions: cited from earlier work
EGFR exon20 insertions = conditions: patients with EGFR exon20 insertions; cited from earlier work
[1] = system: mutations in exons 18, 19, and 21 of EGFR; conditions: cited from earlier work
[2] = background statement on approved drugs; cited from earlier work
[3] = system: EGFR exon20 insertion mutations; conditions: cited from earlier work
EGFR T790M = conditions: T790M mutant patients; cited from earlier work
[4] = system: classical activating EGFR mutations and brain metastasis; conditions: EGFR mutant NSCLC; cited from earlier work

Compound | inhibition of wild-type EGFR (wild-type EGFR) | overall survival (EGFR exon20 insertions) | progression-free survival (EGFR exon20 insertions) | response rates (EGFR exon20 insertions) | durability of response [1] | efficacy in patients [1] | blood-brain-barrier permeability [2] | activity on EGFR exon20 insertion mutations [3] | efficacy in patients (EGFR T790M) | CNS activity [4]
CN(C)C/C=C/C(=O)Nc1cc2c(Nc3ccc(F)c(Cl)c3)ncnc2cc1O[C@H]1CCOC1 [afatinib] | potent inhibitors of wild-type EGFR | significantly reduced | significantly reduced | particular low response rates | often not durable | effective in patients |  |  |  | 
C#Cc1cccc(Nc2ncnc3cc(OCCOC)c(OCCOC)cc23)c1 [erlotinib] |  | significantly reduced | significantly reduced | particular low response rates | often not durable | effective in patients |  |  |  | 
COc1cc2ncnc(Nc3ccc(F)c(Cl)c3)c2cc1OCCCN1CCOCC1 [gefitinib] |  | significantly reduced | significantly reduced | particular low response rates | often not durable | effective in patients |  |  |  | 
C=CC(=O)Nc1cc(Nc2ncc(C(=O)OC(C)C)c(-c3cn(C)c4ccccc34)n2)c(OC)cc1N(C)CCN(C)C [mobocertinib, reference compound] |  |  |  |  |  |  | only limited blood-brain-barrier permeability |  |  | 
C=CC(=O)Nc1cc(Nc2nccc(-c3cn(C)c4ccccc34)n2)c(OC)cc1N(C)CCN(C)C [osimertinib] |  |  |  |  |  |  |  | only limited activity | effective in T790M mutant patients | clearly improved CNS activity
amivantamab |  |  |  |  |  |  | only limited blood-brain-barrier permeability |  |  | 
